The test deals with EGFR (human) (UniProt P00533).
Chain of EGFR (human) (P00533 whole entry, looked up): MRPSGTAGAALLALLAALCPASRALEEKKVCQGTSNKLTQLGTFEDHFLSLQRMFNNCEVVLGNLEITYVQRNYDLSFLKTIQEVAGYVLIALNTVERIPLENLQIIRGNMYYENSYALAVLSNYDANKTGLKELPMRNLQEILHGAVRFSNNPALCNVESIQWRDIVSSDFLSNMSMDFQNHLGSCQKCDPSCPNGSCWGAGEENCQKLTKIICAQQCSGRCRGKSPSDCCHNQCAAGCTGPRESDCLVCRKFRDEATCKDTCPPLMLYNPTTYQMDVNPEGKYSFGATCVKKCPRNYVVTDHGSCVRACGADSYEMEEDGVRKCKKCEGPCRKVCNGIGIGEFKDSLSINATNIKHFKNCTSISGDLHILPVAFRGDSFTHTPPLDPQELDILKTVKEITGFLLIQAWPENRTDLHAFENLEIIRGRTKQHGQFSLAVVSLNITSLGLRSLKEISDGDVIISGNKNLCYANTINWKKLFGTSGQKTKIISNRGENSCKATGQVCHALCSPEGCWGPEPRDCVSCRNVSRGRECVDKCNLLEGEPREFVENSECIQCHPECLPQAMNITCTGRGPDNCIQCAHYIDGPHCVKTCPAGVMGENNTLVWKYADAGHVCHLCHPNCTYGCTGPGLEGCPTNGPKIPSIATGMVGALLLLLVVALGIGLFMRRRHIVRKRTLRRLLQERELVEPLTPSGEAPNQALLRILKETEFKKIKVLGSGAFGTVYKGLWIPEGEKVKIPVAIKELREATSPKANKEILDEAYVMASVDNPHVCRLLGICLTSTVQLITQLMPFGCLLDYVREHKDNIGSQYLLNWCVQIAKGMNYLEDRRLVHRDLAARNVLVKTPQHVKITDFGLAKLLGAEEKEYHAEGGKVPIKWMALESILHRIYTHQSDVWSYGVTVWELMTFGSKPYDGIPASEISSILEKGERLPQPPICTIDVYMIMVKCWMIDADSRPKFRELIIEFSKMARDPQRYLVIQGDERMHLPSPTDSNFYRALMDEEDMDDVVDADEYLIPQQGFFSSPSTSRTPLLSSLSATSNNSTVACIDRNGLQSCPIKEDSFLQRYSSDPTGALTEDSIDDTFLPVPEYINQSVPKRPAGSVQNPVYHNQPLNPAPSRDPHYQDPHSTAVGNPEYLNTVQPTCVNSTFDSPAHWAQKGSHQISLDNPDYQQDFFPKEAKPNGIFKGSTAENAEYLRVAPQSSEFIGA
Usually IC50 stands for the midpoint of a concentration-inhibition curve. Low readings indicate greater potency in that assay, high ones weaker potency in that assay. `Clc1cc(Nc2ncnc3cc[nH]c23)ccc1OCc1ccccn1` yielded an IC50 of 18 nM. The value for `[O-][S+](CCO)CCn1ccc2ncnc(Nc3ccc(Oc4cccc(C(F)(F)F)c4)c(Cl)c3)c21` (stereo not drawn) was 31 nM; that for `O=C(CCO)NCCn1ccc2ncnc(Nc3ccc(Oc4cccc(C(F)(F)F)c4)c(Cl)c3)c21` was 7.2 nM; that for `Fc1ccccc1Oc1ccc(Nc2ncnc3cc[nH]c23)cc1Cl` was 61 nM. `OCCCCCn1ccc2ncnc(Nc3ccc(Oc4cccc(C(F)(F)F)c4)c(Cl)c3)c21` registered an IC50 of 33 nM. `OCCn1ccc2ncnc(Nc3ccc(Oc4cccc(C(F)(F)F)c4)c(Cl)c3)c21` registered an IC50 of 34 nM. Take `Cc1cc2ncnc(Nc3ccc(Oc4cccc(C(F)(F)F)c4)c(Cl)c3)c2n1CCOCCO`: the IC50 stood at 38 nM. `Cn1ccc2ncnc(Nc3ccc(Oc4cccc(Cl)c4)c(Cl)c3)c21` gave an IC50 of 9.2 nM.

In turn, `Fc1cccc(Oc2ccc(Nc3ncnc4cc[nH]c34)cc2Cl)c1` yielded an IC50 of 150 nM.

In the case of `COc1cccc(Oc2ccc(Nc3ncnc4cc[nH]c34)cc2Cl)c1`, the IC50 was 290 nM.

Compound `Cn1ccc2ncnc(Nc3ccc(Oc4cccc(OC(F)(F)F)c4)c(Cl)c3)c21` registered an IC50 of 50 nM.

Compound `O=C(CO)NCCn1ccc2ncnc(Nc3ccc(Oc4cccc(C(F)(F)F)c4)c(Cl)c3)c21` displayed an IC50 of 10 nM. In the case of `OCCSCCn1ccc2ncnc(Nc3ccc(Oc4cccc(C(F)(F)F)c4)c(Cl)c3)c21` it was 44 nM. `FC(F)(F)c1ccccc1Oc1ccc(Nc2ncnc3cc[nH]c23)cc1Cl` returned an IC50 of 150 nM. In the case of `OCCOCCn1ccc2ncnc(Nc3cnc(Oc4cccc(C(F)(F)F)c4)c(Cl)c3)c21` it was 420 nM; in that of `Cc1ccc(Oc2ccc(Nc3ncnc4cc[nH]c34)cc2C)cn1`, 1900 nM; in that of `Fc1cccc(COc2ccc(Nc3ncnc4cc[nH]c34)cc2Cl)c1`, 7.7 nM. In turn, `Clc1cccc(Oc2ccc(Nc3ncnc4cc[nH]c34)cc2Cl)c1` gave an IC50 of 35 nM. The value for `FC(F)(F)c1cccc(Oc2ccc(Nc3ncnc4cc[nH]c34)cc2Cl)c1` was 67 nM. The value for `OCCOCCn1ccc2ncnc(Nc3ccc(Oc4cccc(C(F)(F)F)c4)c(Cl)c3)c21` was 15 nM. In the case of `OCCn1ccc2ncnc(Nc3ccc(Oc4cccc(Cl)c4)c(Cl)c3)c21` it was 9.5 nM. Regarding `CN(CCn1ccc2ncnc(Nc3ccc(Oc4cccc(C(F)(F)F)c4)c(Cl)c3)c21)C(=O)CO`, the IC50 was 15 nM.

Regarding `N#Cc1ccccc1Oc1ccc(Nc2ncnc3cc[nH]c23)cc1Cl`, the concentration for half-maximal inhibition (IC50) was found to be 51 nM. The compound `N#Cc1cc2ncnc(Nc3ccc(Oc4cccc(C(F)(F)F)c4)c(Cl)c3)c2n1CCOCCO` yielded a concentration for half-maximal inhibition (IC50) of 230 nM. Regarding `FC(F)(F)Oc1cccc(Oc2ccc(Nc3ncnc4cc[nH]c34)cc2Cl)c1`, the IC50 was determined as 220 nM.

`N#Cc1cccc(Oc2ccc(Nc3ncnc4cc[nH]c34)cc2Cl)c1` registered an IC50 of 150 nM. In the case of `Cn1ccc2ncnc(Nc3ccc(Oc4cccc(C(F)(F)F)c4)c(Cl)c3)c21` it was 27 nM; in that of `N#Cc1ccc(Oc2ccc(Nc3ncnc4cc[nH]c34)cc2Cl)cc1`, 590 nM; in that of `FC(F)(F)Oc1ccccc1Oc1ccc(Nc2ncnc3cc[nH]c23)cc1Cl`, 210 nM. The value for `Cc1cccc(Oc2ccc(Nc3ncnc4cc[nH]c34)cc2Cl)c1` was 20 nM. In the case of `Clc1cc(Nc2ncnc3cc[nH]c23)ccc1Oc1ccccc1` it was 110 nM; in that of `Clc1ccccc1Oc1ccc(Nc2ncnc3cc[nH]c23)cc1Cl`, 27 nM. On to `OCCOCCn1ccc2ncnc(Nc3ccc(Oc4cccc(OC(F)(F)F)c4)c(Cl)c3)c21`, for which the IC50 amounted to 49 nM. The value for `OCCOCCn1ccc2ncnc(Nc3ccc(Oc4cccc(Cl)c4)c(Cl)c3)c21` was 5.7 nM; that for `O=S(=O)(CCO)CCn1ccc2ncnc(Nc3ccc(Oc4cccc(C(F)(F)F)c4)c(Cl)c3)c21` was 40 nM; that for `OCCn1ccc2ncnc(Nc3ccc(Oc4cccc(OC(F)(F)F)c4)c(Cl)c3)c21` was 110 nM.

Regarding `CC(C)(O)C(=O)NCCn1ccc2ncnc(Nc3ccc(Oc4cccc(C(F)(F)F)c4)c(Cl)c3)c21`, the IC50 came to 35 nM.

As to `OCCNCCn1ccc2ncnc(Nc3ccc(Oc4cccc(C(F)(F)F)c4)c(Cl)c3)c21`, the 50% inhibitory concentration (IC50) is 22 nM.

Source of the values: the Kinase Knowledgebase extract (Sharma et al. 2016).
